The values that follow come from PubChem BioAssay (NCI).

Common to all, as to experiment: NCI tumour cell line growth inhibition, 48 h
For test [1], the system named is HOP-18 NSCLC.
For test [2], the system named is P388 leukemia.
Test [3] concerns P388/ADR leukemia.
Test [4] relates to SN12K1 renal.
Test [5] concerns SNB-78 CNS.
For test [6], the system named is XF 498 CNS.
Test [7] relates to MDA-N.
The test system of test [8] is 786-0 renal.
Test [9] concerns LXFL 529 NSCLC.
Test [10] deals with RXF-631 renal.

Several values for one entry are separate records, joined by “and”; a condition that tells them apart may be missing. Identical values can stand only once.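 The compound was tested at five concentrations on cells cultured in 96-well plates, with a 48-hour exposure period. GI50 marks 50% less growth. TGI is the concentration that stops growth completely.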

Take `CC1=NN(C(=O)c2ccc(C)cc2)C(=O)C1N=Nc1ccccc1C(=O)O` (stereo not drawn): the TGI in test [1] was more than 100 µM; in test [2] it was more than 51.5 µM; in [3], more than 100 µM; in [4], more than 100 µM; in test [5], more than 100 µM; in test [6] it was more than 100 µM.
In test [7], `Cc1ccc2oc3c(ccc(=O)n3C)c(=O)c2c1` registered a TGI of more than 100 µM.
`N/C(=N\N=C/c1cc([N+](=O)[O-])cc([N+](=O)[O-])c1O)NO`: the TGI in [1] was more than 100 µM; in [2] it was 21.9 µM; in test [3] it was more than 100 µM; in test [4] it was 4.92 µM; in [5], more than 100 µM; in [6], 98.1 µM.
`CC(C)(CC1(C)NC(=O)NC1=O)OCc1ccccc1` (stereo not drawn) showed a TGI in test [8] of more than 100 µM.
Turning to `CCOC(=O)[C@H]1Nc2c(cccc2[N+](=O)[O-])C2c3ccccc3CC21` (stereo partly drawn), the TGI in [9], in test [10], in test [5] and in test [6] was more than 100 µM throughout.
Regarding `CC1CCN(c2cc(-c3cc4ccccc4o3)oc(=O)c2C#N)CC1`, the TGI in test [1], in test [9] and in test [6] was more than 100 µM throughout.
The compound `O=c1[nH]c(=S)[nH]c2c(C3OC(CO)C(O)C3O)nsc12` (stereo not drawn) showed a TGI in test [7] of more than 100 µM.
Still for that read-out and setting: next, `c1csc(C(NC2=NCCO2)C2CC2)c1` (stereo not drawn): more than 100 µM.
In the case of `COc1cccc(/C=N/[N-]C(N)=O)c1[O-].[OH3+].[Pd+2]`, in test [8], the TGI was more than 100 µM.
`CCN1C(=O)N2C(OC)c3ccccc3C(Br)C2(OC)C1=O` (stereo not drawn): the TGI in [9] and in test [10] was more than 100 µM in each case.
Take `CC(=O)Nc1cc(/C=C\C(=O)N2CC(CCl)c3c2cc(N)c2ccccc32)n(C)n1` (stereo not drawn): in test [7], the GI50 was 0.0136 µM; the TGI is 0.0411 µM and 0.0435 µM.
For `Clc1ccc(-c2nnc(-c3nsc4ccccc34)o2)cc1`, the TGI in [9] and in test [5] was more than 100 µM each time.
`N=C(N)c1ccc(N=Nc2c(O)ccc3cc(O)ccc23)cc1` gave a TGI in test [8] of more than 100 µM.
On to `O=S(=O)(c1ccc2ccccc2c1)N1CCN(S(=O)(=O)c2ccc3ccccc3c2)CC1`, for which the TGI in [8] and in test [7] was more than 100 µM throughout.
With `O=C(/C=C\c1ccc(/C=C/C(=O)Nc2cccc(C3=NCCCN3)c2)cc1)Nc1cccc(C2=NCCCN2)c1`, the TGI in test [1], in test [2], in test [3], in test [4] and in test [5] was more than 100 µM each time.
